Results as given in publication PMC9780937 (Molecules, 2022).
“Also recorded” adds a separate entry of the source.

Experiments:
[1] = in vivo; cited from earlier work
[2] = molecular target: human mu-opioid receptor (MOR), stably expressed in CHO cells (CHO-hMOR), in membranes (human) (UniProt P35372)
[3] = system: mice; design: method as in PMID 30571123; details: s.c.; cited from earlier work
[4] = system: mice; details: cited from earlier work
Text: This is particularly important given the current rise in the abuse of prescription opioids, commonly MOR agonists. The MOR is established to play a major role in analgesia, but also on the undesirable opioid side effect of reward, with deletion of the gene encoding MOR (Oprm1) completely blocking opioid analgesia and reward behavior in rodents. To this aim, we used the conditioned place preference (CPP) paradigm, as described previously. The CPP is a w ...

[5] = system: mice; details: 15.5 µmol/kg s.c. chronic, day 1 to day 4; cited from earlier work
[6] = molecular target: T1, human MOR (Homo sapiens, UniProt P35372); experiment: biochemical; format: biochemical
T1 sequence (P35372 whole entry): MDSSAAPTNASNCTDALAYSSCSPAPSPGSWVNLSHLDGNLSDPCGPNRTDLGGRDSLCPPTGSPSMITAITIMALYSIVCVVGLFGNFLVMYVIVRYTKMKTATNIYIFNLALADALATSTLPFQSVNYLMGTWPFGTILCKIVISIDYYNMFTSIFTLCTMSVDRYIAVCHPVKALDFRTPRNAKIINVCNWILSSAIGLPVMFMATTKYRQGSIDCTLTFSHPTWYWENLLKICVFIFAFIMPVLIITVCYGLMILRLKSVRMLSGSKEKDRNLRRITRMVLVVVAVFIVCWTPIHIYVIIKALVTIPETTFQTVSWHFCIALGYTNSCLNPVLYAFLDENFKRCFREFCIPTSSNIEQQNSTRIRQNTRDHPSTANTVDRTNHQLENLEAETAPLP

[7] = molecular target: T1, human MOR; experiment: cell-based; format: cell-based
[8] = system: mice; experiment: Acetic acid-induced writhing assay (visceral pain); format: in vivo, mouse (male CD1); details: s.c.
[9] = system: mice; experiment: Conditioned place preference (CPP) test, rewarding effects; format: in vivo, mouse (male CD1); details: 7.4 µmol/kg s.c. daily for 4 days, vs saline; n = 8 mice per group
[10] = system: mice; experiment: Open-field test, spontaneous locomotor activity; format: in vivo, mouse (male CD1); details: 7.4 µmol/kg s.c. daily for 4 days, vs saline; 30 min recording; n = 8 mice per group
[11] = system: human MOR; experiment: Comparison of G protein activation ([35S]GTPγS binding) and β-arrestin2 recruitment (PathHunter)
[12] = system: human MOR; design: method as in 2 sources, one per row (each row's own in cited_ref): ref 19 = [19]; PMID 29708942; doi:10.1097/j.pain.0000000000001262; 19. Drieu La Rochelle A. Guillemyn K. Dumitrascuta M. Martin C. Utard V. Quillet R. Schneider S. Daubeuf F. Willemse T. Mampuys P. A bifunctional-biased mu-opioid agonist-neuropeptide FF receptor anta ||| ref 19 (suppl. ref 1); details: cited from earlier work
[13] = system: MOR; design: method as in 3 sources, one per row (each row's own in cited_ref): ref 19 = [19]; PMID 29708942; doi:10.1097/j.pain.0000000000001262; 19. Drieu La Rochelle A. Guillemyn K. Dumitrascuta M. Martin C. Utard V. Quillet R. Schneider S. Daubeuf F. Willemse T. Mampuys P. A bifunctional-biased mu-opioid agonist-neuropeptide FF receptor anta ||| ref suppl. ref 1 ||| ref 19 (suppl. ref 1); details: cited from earlier work
[14] = molecular target: MOR; design: method as in suppl. ref 1; details: radioligand competitive binding; ref suppl. ref 1; read-out: Binding affinity Ki, MOR; cited from earlier work
[15] = system: DOR; design: method as in 2 sources, one per row (each row's own in cited_ref): ref 19 = [19]; PMID 29708942; doi:10.1097/j.pain.0000000000001262; 19. Drieu La Rochelle A. Guillemyn K. Dumitrascuta M. Martin C. Utard V. Quillet R. Schneider S. Daubeuf F. Willemse T. Mampuys P. A bifunctional-biased mu-opioid agonist-neuropeptide FF receptor anta ||| ref suppl. ref 1; details: cited from earlier work
[16] = molecular target: NOP receptor; design: method as in suppl. ref 1; details: radioligand competitive binding; ref suppl. ref 1; read-out: Binding affinity Ki, NOP receptor; cited from earlier work
[17] = system: DOR; design: method as in 2 sources, one per row (each row's own in cited_ref): ref 19 = [19]; PMID 29708942; doi:10.1097/j.pain.0000000000001262; 19. Drieu La Rochelle A. Guillemyn K. Dumitrascuta M. Martin C. Utard V. Quillet R. Schneider S. Daubeuf F. Willemse T. Mampuys P. A bifunctional-biased mu-opioid agonist-neuropeptide FF receptor anta ||| ref suppl. ref 1; details: cited from earlier work; remark: listed apart in the source
[18] = system: KOR; design: method as in 2 sources, one per row (each row's own in cited_ref): ref 19 = [19]; PMID 29708942; doi:10.1097/j.pain.0000000000001262; 19. Drieu La Rochelle A. Guillemyn K. Dumitrascuta M. Martin C. Utard V. Quillet R. Schneider S. Daubeuf F. Willemse T. Mampuys P. A bifunctional-biased mu-opioid agonist-neuropeptide FF receptor anta ||| ref suppl. ref 1; details: cited from earlier work
[19] = system: NOP receptor; design: method as in 2 sources, one per row (each row's own in cited_ref): ref 19 = [19]; PMID 29708942; doi:10.1097/j.pain.0000000000001262; 19. Drieu La Rochelle A. Guillemyn K. Dumitrascuta M. Martin C. Utard V. Quillet R. Schneider S. Daubeuf F. Willemse T. Mampuys P. A bifunctional-biased mu-opioid agonist-neuropeptide FF receptor anta ||| ref suppl. ref 1; details: cited from earlier work
[20] = system: NPFF1R; design: method as in suppl. ref 1; details: [35S]GTPγS binding assay; ref suppl. ref 1; cited from earlier work
[21] = system: NPFF2R; design: method as in suppl. ref 1; details: [35S]GTPγS binding assay; ref suppl. ref 1; cited from earlier work
[22] = system: mice; design: method as in earlier work; details: s.c., ref 19 (suppl. ref 1); cited from earlier work
[23] = system: mice; design: method as in 2 sources, ref 19 (suppl. ref 1) ||| ref 19 = [19]; PMID 29708942; doi:10.1097/j.pain.0000000000001262; 19. Drieu La Rochelle A. Guillemyn K. Dumitrascuta M. Martin C. Utard V. Quillet R. Schneider S. Daubeuf F. Willemse T. Mampuys P. A bifunctional-biased mu-opioid agonist-neuropeptide FF receptor anta; details: s.c., cited from earlier work
[24] = system: mice; design: method as in earlier work; details: s.c., 7.4 µmol/kg where stated (mechanical and thermal stimulation), ref 19 (suppl. ref 1); cited from earlier work
[25] = system: mice; details: acute s.c., at effective antinociceptive doses (7.4 µmol/kg), ref 19 (suppl. ref 1); cited from earlier work
[26] = system: mice; design: method as in suppl. ref 1; details: acute s.c., at effective antinociceptive doses, ref suppl. ref 1; cited from earlier work
[27] = system: mice; design: method as in suppl. ref 1; details: acute s.c., at effective antinociceptive doses, ref suppl. ref 1; cited from earlier work; remark: listed apart in the source
[28] = system: mice; details: chronic s.c., at effective antinociceptive doses (7.4 µmol/kg), ref 19 (suppl. ref 1); cited from earlier work
[29] = system: mice; details: chronic s.c., at effective antinociceptive doses (7.4 µmol/kg), ref 19 (suppl. ref 1); cited from earlier work; remark: listed apart in the source
[30] = system: mice; details: chronic s.c., at effective antinociceptive doses (7.4 µmol/kg), ref 19 (suppl. ref 1); cited from earlier work; remark: listed apart in the source
[31] = system: neuropeptide FF receptor (NPFFR); design: method as in PMID 29708942; details: in vitro; cited from earlier work
[32] = relative to maximal effect of DAMGO (100%), HEK293 cells, ref 19 (suppl. ref 1)
[33] = cAMP accumulation assay, ref suppl. ref 1

human mu-opioid receptor (MOR), stably expressed in CHO cells (CHO-hMOR), in membranes (human), sequence (P35372 whole entry): as above

## COc1ccc2c3c1O[C@H]1C(=O)CC[C@@]4(O)[C@@H](C2)N(C)CC[C@]314 [oxycodone]
[1]
  Sedation and locomotor activity: known to produce sedation and to reduce locomotor activity

## [D-Ala2,N-Me-Phe4,Gly-ol5]enkephalin (DAMGO) (peptide)
[2]
  [35S]GTPγS binding (G protein activation), membranes from CHO-hMOR cells: EC50: 35 nM
  [35S]GTPγS binding (G protein activation), membranes from CHO-hMOR cells: Emax (%, the reference set to 100): 100%

## KGFF09 (H-Dmt-DArg-Aba-βAla-Bpa-Phe-NH2) (peptide)
[2]
  [35S]GTPγS binding (G protein activation), membranes from CHO-hMOR cells: EC50: 8.28 nM
  [35S]GTPγS binding (G protein activation), membranes from CHO-hMOR cells: Emax (% of DAMGO): 92%

## CN1CC[C@]23c4c5ccc(O)c4O[C@H]2[C@@H](O)C=C[C@H]3[C@H]1C5 [morphine]
[3]
  ED50, writhing assay (mass): 437 µg/kg
  ED50, writhing assay (molar): 1.36 µmol/kg
[4]; 15.5 µmol/kg daily, vs saline
  Rewarding effect of morphine, CPP: significant place preference compared to the saline group
[4]; mice
  CPP with narcotic drugs: produce CPP
[5]
  Spontaneous locomotor activity of morphine: significant hyperlocomotion from day 1 to day 4
[1]
  Sedation and locomotor activity: known to produce sedation and to reduce locomotor activity

## Cc1cc(O)cc(C)c1C[C@H](N)C(=O)N[C@H](CCCNC(=N)N)C(=O)NC1Cc2ccccc2CN(CCC(=O)NC(CCCN2CCC(Cc3ccccc3)CC2)C(=O)N[C@@H](Cc2ccccc2)C(N)=O)C1=O (stereo partly drawn) [KGFF09, H-Dmt-DArg-Aba-βAla-Bpa-Phe-NH2]
[6]
  Functional profile at MOR in [35S]GTPγS binding: full agonist with high G protein coupling potency
  Potency increase compared to DAMGO, G protein activation: four-fold increase in potency compared to DAMGO
[6]; read-out: Emax, [35S]GTPγS binding
  Emax: 92 ± 9%
[7]
  β-arrestin2 recruitment: failed to robustly engage β-arrestin2 recruitment
[7]; read-out: Emax, β-arrestin2 recruitment (PathHunter)
  Emax: 57 ± 3%
[8]; 30 min after administration, Litchfield and Wilcoxon
  Antinociceptive ED50, writhing assay: 0.079 µmol/kg
[8]; mice
  Effect in writhing assay: yes and dose-dependent inhibition of the writhing behavior
[8]; ratio of ED50 (morphine ED50 from ref 24)
  Potency vs morphine, writhing assay: 17 fold
[9]
  Rewarding effect, CPP: no and no significant CPP response compared to saline-treated animals
[10]
  Spontaneous locomotor activity, distance traveled: no and no impairment in the locomotor activity
[11]; PathHunter vs [35S]GTPγS binding, human MOR
  Decrease in potency, β-arrestin2 recruitment vs G protein activation: 153 fold
[11]; [35S]GTPγS binding vs PathHunter β-arrestin2
  Signaling bias at MOR: G protein-biased MOR agonist in vitro
[12]; HEK293 cells co-expressing cAMP Glosensor-20F and human MOR, ref 19 (suppl. ref 1), read-out: EC50, cAMP accumulation, MOR
  EC50: 18.2 nM
[12]; HEK293 cells, human MOR
  Functional profile in cAMP accumulation, MOR: potent and full MOR agonist
[12]; [32]
  Emax, cAMP accumulation, MOR: 85%
[13]; HEK293 cells expressing eYFP-tagged β-arrestin-2, MOR-Rluc8, ref 19 (suppl. ref 1), read-out: EC50, BRET β-arrestin2 recruitment (Table S3)
  EC50: 56.4 nM
[13]; HEK293 cells, MOR
  BRET β-arrestin2 recruitment and bias: reduced efficacy (acting as a partial agonist) in inducing β-arrestin2 recruitment
[13]
  Signaling bias at MOR in vitro, earlier study: G protein-biased MOR agonist
[13]; [32]
  Emax, BRET β-arrestin2 recruitment (Table S3): 42%
[14]
  Ki: 2.43 nM
[15]; DOR vs MOR
  Binding affinity lower at DOR than at MOR: 77 fold
[15]; radioligand competitive binding, ref suppl. ref 1, read-out: Binding affinity Ki, DOR
  Ki: 186 nM
[16]
  Ki: 209 nM
[17]; [33]
  Emax, G protein activation, DOR: 90%
[17]
  Functional profile at DOR: agonist activity at the delta opioid receptor (DOR)
[18]; [33]
  Emax, G protein activation, KOR: 15%
[18]; cAMP accumulation assay, ref suppl. ref 1, read-out: EC50, G protein activation, KOR
  EC50: > 10 µM
[18]
  Functional profile at KOR: antagonist profile
[19]; [33]
  Emax, G protein activation, NOP receptor: 7%
[19]; cAMP accumulation assay, ref suppl. ref 1, read-out: EC50, G protein activation, NOP receptor
  EC50: > 10 µM
[19]
  Functional profile at NOP receptor: antagonist profile
[20]
  pA2, NPFF1R: 7.25
[21]
  pA2, NPFF2R: 7.77
[22]
  Antinociception, warm-water tail-withdrawal test: yes and potent and long-lasting antinociceptive activity and very effective with long-lasting antinociceptive effects
[23]; ref 19 (suppl. ref 1)
  Antinociception, radiant tail-flick test: yes and potent and long-lasting antinociceptive activity and very effective with long-lasting antinociceptive effects
[23]
  ED90, tail-flick test: 7.4 µmol/kg
  Potency vs morphine, tail-flick test: three-fold more potent than morphine
  Relation of 7.4 µmol/kg to tail-flick ED50: three-fold antinociceptive ED50 dose
[24]
  Antihyperalgesic effect, CFA-induced hyperalgesia: yes and potent and long-lasting antinociceptive activity and completely reduced pain behavior of mice to mechanical and thermal stimulation and very effective with long-lasting antinociceptive effects
[25]
  Respiratory depression: less acute side effects; also recorded: reduced opioid-induced side effects
[26]
  Constipation: yes
[27]
  Sedation/motor impairment: yes
[28]
  Opioid-induced hyperalgesia: no and reduced side effects and reduced opioid-induced side effects
[29]
  Antinociceptive/analgesic tolerance: no and reduced side effects and reduced opioid-induced side effects
[30]
  Withdrawal syndrome: no and reduced side effects and reduced opioid-induced side effects
[31]
  Functional profile at NPFFR: NPFFR antagonist
